Patent US20200352905A1, “6-(2,4-DICHLOROPHENYL)-5-[4-[(3S)-1-(3-FLUOROPROPYL)PYRROLIDIN-3-YL]OXYPHENYL]-8,9-DIHYDRO-7H-BENZO[7]ANNULENE-2-CARBOXYLIC ACID FOR USE IN METASTATIC OR ADVANCED BREAST CANCER PATIENTS” (SANOFI, priority 2019, published 2020)
“And” between values parts separate entries of the source, which are not always exact repeats. Equal values may be shown once. Read-outs that look alike come from different tables or passages of the source.

Experiment: TED14856 Part A: plasma pharmacokinetics of compound (1)
Type: in vivo, human
[1] = repeated 20 mg once daily, Cycle1 Day 22, fasted, N=3
[2] = repeated 150 mg once daily, Cycle1 Day 22, fasted, N=2
[3] = repeated 200 mg once daily, Cycle1 Day 22, fasted, N=3
[4] = repeated 400 mg once daily, Cycle1 Day 22, fasted, N=3
[5] = repeated 600 mg once daily, Cycle1 Day 22, fasted, N=3
[6] = single 20 mg, Cycle1 Day 1, fasted, N = 1
[7] = single 150 mg, Cycle1 Day 1, fasted, N = 1
[8] = single 200 mg, Cycle1 Day 1, fasted, N=4
[9] = single 400 mg, Cycle1 Day 1, fasted, N=3
[10] = single 600 mg, Cycle1 Day 1, fasted, N = 2

O=C(O)c1ccc2c(c1)CCCC(c1ccc(Cl)cc1Cl)=C2c1ccc(O[C@H]2CCN(CCCF)C2)cc1 [compound (1), 6-(2,4-dichlorophenyl)-5-[4-[(3S)-1-(3-fluoropropyl)pyrrolidin-3-yl]oxyphenyl]-8,9-dihydro-7H-benzo[7]annulene-2-carboxylic acid]
variability of exposure parameters (average CV) (after repeated administrations): ~45%
total variability of exposure parameters (average CV) (after single dose administration): > 60%
Cmax (female, human, plasma, oral, 20 mg, single 20 mg, Cycle1 Day 1, fasted, N=3, read-out: Cmax (Mean ± SD)): 187 ± 46.7 ng/mL
Cmax (female, human, plasma, oral, 150 mg, single 150 mg, Cycle1 Day 1, fasted, N=3, read-out: Cmax (Mean ± SD)): 1310 ± 1380 ng/mL
Cmax (female, human, plasma, oral, 200 mg, single 200 mg, Cycle1 Day 1, fasted, N=4, read-out: Cmax (Mean ± SD)): 1650 ± 1340 ng/mL
Cmax (female, human, plasma, oral, 400 mg, single 400 mg, Cycle1 Day 1, fasted, N=3, read-out: Cmax (Mean ± SD)): 4740 ± 2920 ng/mL
Tmax (female, human, plasma, oral, 20 to 600 mg once a day, fasting, Day 1 and Day 22 Cycle 1, read-out: median time to achieve maximum concentration (tmax)): ~3 h
clearance (female, human, plasma, oral, across the 20-600 mg range, read-out: mean apparent systemic clearance): 233 to 250 mL/min
Vd (female, human, plasma, oral, across the 20-600 mg range, read-out: mean apparent volume of distribution): ~120 L
half-life (female, human, plasma, oral, estimated over 48 hours after a single dose on Day 1, read-out: mean apparent terminal half-life): ≥ 8 h
AUC(0-t) (human, plasma, oral, 20 mg, repeated 20 mg once daily, Cycle1 Day 22, fasted, N=3, read-out: AUC0-24 (Geometric Mean)): 1350 ng·h/mL
AUC(0-t) (human, plasma, oral, 20 mg, repeated 20 mg once daily, Cycle1 Day 22, fasted, N=3, read-out: AUC0-24 (Mean ± SD)): 1630 ± 1120 ng·h/mL
Cmax (human, plasma, oral, 20 mg, repeated 20 mg once daily, Cycle1 Day 22, fasted, N=3, read-out: Cmax (Geometric Mean)): 203 ng/mL
Cmax (human, plasma, oral, 20 mg, repeated 20 mg once daily, Cycle1 Day 22, fasted, N=3, read-out: Cmax (Mean ± SD)): 218 ± 95.3 ng/mL
Tmax (human, plasma, oral, 20 mg, repeated 20 mg once daily, Cycle1 Day 22, fasted, N=3, read-out: tmax (median)): 2.17 h
Vd/F (human, plasma, oral, 20 mg, single 20 mg, Cycle1 Day 1, fasted, N = 1, read-out: Vss/F (Geometric Mean)): 81.9 L
Vd/F (human, plasma, oral, 20 mg, single 20 mg, Cycle1 Day 1, fasted, N = 1, read-out: Vss/F (Mean ± SD)): 81.9 L
AUC(0-t) (human, plasma, oral, 20 mg, single 20 mg, Cycle1 Day 1, fasted, N=3, read-out: AUC0-24 (Geometric Mean)): 924 ng·h/mL
Cmax (human, plasma, oral, 20 mg, single 20 mg, Cycle1 Day 1, fasted, N=3, read-out: Cmax (Geometric Mean)): 183 ng/mL
Tmax (human, plasma, oral, 20 mg, single 20 mg, Cycle1 Day 1, fasted, N=3, read-out: tmax (median)): 1.52 h
AUC(0-t) (human, plasma, oral, 150 mg, repeated 150 mg once daily, Cycle1 Day 22, fasted, N=2, read-out: AUC0-24 (Geometric Mean)): 15000 ng·h/mL
AUC(0-t) (human, plasma, oral, 150 mg, repeated 150 mg once daily, Cycle1 Day 22, fasted, N=2, read-out: AUC0-24 (Mean ± SD)): 15900 ng·h/mL
Cmax (human, plasma, oral, 150 mg, repeated 150 mg once daily, Cycle1 Day 22, fasted, N=2, read-out: Cmax (Geometric Mean)): 2230 ng/mL
Cmax (human, plasma, oral, 150 mg, repeated 150 mg once daily, Cycle1 Day 22, fasted, N=2, read-out: Cmax (Mean ± SD)): 2390 ng/mL
Tmax (human, plasma, oral, 150 mg, repeated 150 mg once daily, Cycle1 Day 22, fasted, N=2, read-out: tmax (median)): 2.97 h
Vd/F (human, plasma, oral, 150 mg, single 150 mg, Cycle1 Day 1, fasted, N = 1, read-out: Vss/F (Geometric Mean)): 61.5 L
Vd/F (human, plasma, oral, 150 mg, single 150 mg, Cycle1 Day 1, fasted, N = 1, read-out: Vss/F (Mean ± SD)): 61.5 L
AUC(0-t) (human, plasma, oral, 150 mg, single 150 mg, Cycle1 Day 1, fasted, N=3, read-out: AUC0-24 (Geometric Mean)): 6860 ng·h/mL
AUC(0-t) (human, plasma, oral, 150 mg, single 150 mg, Cycle1 Day 1, fasted, N=3, read-out: AUC0-24 (Mean ± SD)): 9140 ± 8730 ng·h/mL
Cmax (human, plasma, oral, 150 mg, single 150 mg, Cycle1 Day 1, fasted, N=3, read-out: Cmax (Geometric Mean)): 884 ng/mL
Tmax (human, plasma, oral, 150 mg, single 150 mg, Cycle1 Day 1, fasted, N=3, read-out: tmax (median)): 3 h
AUC(0-t) (human, plasma, oral, 200 mg, repeated 200 mg once daily, Cycle1 Day 22, fasted, N=3, read-out: AUC0-24 (Geometric Mean)): 13400 ng·h/mL
AUC(0-t) (human, plasma, oral, 200 mg, repeated 200 mg once daily, Cycle1 Day 22, fasted, N=3, read-out: AUC0-24 (Mean ± SD)): 13900 ± 4380 ng·h/mL
Cmax (human, plasma, oral, 200 mg, repeated 200 mg once daily, Cycle1 Day 22, fasted, N=3, read-out: Cmax (Geometric Mean)): 2030 ng/mL
Cmax (human, plasma, oral, 200 mg, repeated 200 mg once daily, Cycle1 Day 22, fasted, N=3, read-out: Cmax (Mean ± SD)): 2150 ± 873 ng/mL
Tmax (human, plasma, oral, 200 mg, repeated 200 mg once daily, Cycle1 Day 22, fasted, N=3, read-out: tmax (median)): 2.07 h
AUC(0-t) (human, plasma, oral, 200 mg, single 200 mg, Cycle1 Day 1, fasted, N=4, read-out: AUC0-24 (Geometric Mean)): 9760 ng·h/mL
AUC(0-t) (human, plasma, oral, 200 mg, single 200 mg, Cycle1 Day 1, fasted, N=4, read-out: AUC0-24 (Mean ± SD)): 13600 ± 13800 ng·h/mL
Cmax (human, plasma, oral, 200 mg, single 200 mg, Cycle1 Day 1, fasted, N=4, read-out: Cmax (Geometric Mean)): 1340 ng/mL
Vd/F (human, plasma, oral, 200 mg, single 200 mg, Cycle1 Day 1, fasted, N=4, read-out: Vss/F (Geometric Mean)): 173 L
Vd/F (human, plasma, oral, 200 mg, single 200 mg, Cycle1 Day 1, fasted, N=4, read-out: Vss/F (Mean ± SD)): 213 ± 127 L
Tmax (human, plasma, oral, 200 mg, single 200 mg, Cycle1 Day 1, fasted, N=4, read-out: tmax (median)): 2.98 h
AUC(0-t) (human, plasma, oral, 400 mg, repeated 400 mg once daily, Cycle1 Day 22, fasted, N=3, read-out: AUC0-24 (Geometric Mean)): 29500 ng·h/mL
AUC(0-t) (human, plasma, oral, 400 mg, repeated 400 mg once daily, Cycle1 Day 22, fasted, N=3, read-out: AUC0-24 (Mean ± SD)): 36800 ± 23500 ng·h/mL
Cmax (human, plasma, oral, 400 mg, repeated 400 mg once daily, Cycle1 Day 22, fasted, N=3, read-out: Cmax (Geometric Mean)): 3370 ng/mL
Cmax (human, plasma, oral, 400 mg, repeated 400 mg once daily, Cycle1 Day 22, fasted, N=3, read-out: Cmax (Mean ± SD)): 4020 ± 2460 ng/mL
Tmax (human, plasma, oral, 400 mg, repeated 400 mg once daily, Cycle1 Day 22, fasted, N=3, read-out: tmax (median)): 2.95 h
AUC(0-t) (human, plasma, oral, 400 mg, single 400 mg, Cycle1 Day 1, fasted, N=3, read-out: AUC0-24 (Geometric Mean)): 37600 ng·h/mL
AUC(0-t) (human, plasma, oral, 400 mg, single 400 mg, Cycle1 Day 1, fasted, N=3, read-out: AUC0-24 (Mean ± SD)): 40400 ± 17500 ng·h/mL
Cmax (human, plasma, oral, 400 mg, single 400 mg, Cycle1 Day 1, fasted, N=3, read-out: Cmax (Geometric Mean)): 4120 ng/mL
Vd/F (human, plasma, oral, 400 mg, single 400 mg, Cycle1 Day 1, fasted, N=3, read-out: Vss/F (Geometric Mean)): 112 L
Vd/F (human, plasma, oral, 400 mg, single 400 mg, Cycle1 Day 1, fasted, N=3, read-out: Vss/F (Mean ± SD)): 117 ± 40.6 L
Tmax (human, plasma, oral, 400 mg, single 400 mg, Cycle1 Day 1, fasted, N=3, read-out: tmax (median)): 3 h
AUC(0-t) (human, plasma, oral, 600 mg, repeated 600 mg once daily, Cycle1 Day 22, fasted, N=3, read-out: AUC0-24 (Geometric Mean)): 41700 ng·h/mL
AUC(0-t) (human, plasma, oral, 600 mg, repeated 600 mg once daily, Cycle1 Day 22, fasted, N=3, read-out: AUC0-24 (Mean ± SD)): 42700 ± 11200 ng·h/mL
Cmax (human, plasma, oral, 600 mg, repeated 600 mg once daily, Cycle1 Day 22, fasted, N=3, read-out: Cmax (Geometric Mean)): 5510 ng/mL
Cmax (human, plasma, oral, 600 mg, repeated 600 mg once daily, Cycle1 Day 22, fasted, N=3, read-out: Cmax (Mean ± SD)): 5570 ± 962 ng/mL
Tmax (human, plasma, oral, 600 mg, repeated 600 mg once daily, Cycle1 Day 22, fasted, N=3, read-out: tmax (median)): 3 h
Vd/F (human, plasma, oral, 600 mg, single 600 mg, Cycle1 Day 1, fasted, N = 2, read-out: Vss/F (Geometric Mean)): 132 L
Vd/F (human, plasma, oral, 600 mg, single 600 mg, Cycle1 Day 1, fasted, N = 2, read-out: Vss/F (Mean ± SD)): 137 L
AUC(0-t) (human, plasma, oral, 600 mg, single 600 mg, Cycle1 Day 1, fasted, N=3, read-out: AUC0-24 (Geometric Mean)): 53400 ng·h/mL
AUC(0-t) (human, plasma, oral, 600 mg, single 600 mg, Cycle1 Day 1, fasted, N=3, read-out: AUC0-24 (Mean ± SD)): 61100 ± 36300 ng·h/mL
Cmax (human, plasma, oral, 600 mg, single 600 mg, Cycle1 Day 1, fasted, N=3, read-out: Cmax (Geometric Mean)): 6160 ng/mL
Cmax (human, plasma, oral, 600 mg, single 600 mg, Cycle1 Day 1, fasted, N=3, read-out: Cmax (Mean ± SD)): 7010 ± 4180 ng/mL
Tmax (human, plasma, oral, 600 mg, single 600 mg, Cycle1 Day 1, fasted, N=3, read-out: tmax (median)): 3.03 h
accumulation on Day 21/22 (once-daily administrations up to 200 mg): moderate accumulation
accumulation on Day 21/22 (once-daily, doses higher than 200 mg): no accumulation
CLss/F (Mean ± SD) [1]: 18.0 ± 13.7 L/h
Ctrough (Mean ± SD) [1]: 8.10 ± 7.16 ng/mL
CLss/F (Mean ± SD) [2]: 10.6 NC L/hr
Ctrough (Geometric Mean) [2]: (115) [NC] ng/mL
Ctrough (Mean ± SD) [2]: 126 NC ng/mL
CLss/F (Mean ± SD) [3]: 15.3 ± 4.30 L/h
Ctrough (Geometric Mean) [3]: (59.2) [73.6] ng/mL
Ctrough (Mean ± SD) [3]: 76.1 ± 56.0 ng/mL
CLss/F (Mean ± SD) [4]: 18.1 ± 17.4 L/h
Ctrough (Geometric Mean) [4]: (253) [84.2] ng/mL
Ctrough (Mean ± SD) [4]: 388 ng/mL and 388 ± 327 ng/mL
CLss/F (Mean ± SD) [5]: 14.7 ± 3.96 L/h
Ctrough (Geometric Mean) [5]: (314) [56.8] ng/mL
Ctrough (Mean ± SD) [5]: 348 ± 197 ng/mL
CL/F (Mean ± SD) [6]: 12.2 NC L/hr
t1/2z (Geometric Mean) [6]: (4.86) [NC]^b hr
t1/2z (Mean ± SD) [6]: 4.86 NC hr
CL/F (Mean ± SD) [7]: 7.26 NC L/hr
t1/2z (Geometric Mean) [7]: (6.42) [NC]^b hr
t1/2z (Mean ± SD) [7]: 6.42 NC hr
CL/F (Mean ± SD) [8]: 24.2 ± 17.0 L/h
t1/2z (Geometric Mean) [8]: (7.31) [19.5] hr
t1/2z (Mean ± SD) [8]: 7.41 ± 1.45 h
CL/F (Mean ± SD) [9]: 9.86 ± 5.77 L/h
t1/2z (Mean ± SD) [9]: 10.6 ± 2.33 h
CL/F (Mean ± SD) [10]: 15.2 NC L/hr
t1/2z (Geometric Mean) [10]: (8.97) [NC]^c hr
t1/2z (Mean ± SD) [10]: 9.45 NC hr
accumulation after repeated oral administration (up to 600 mg): limited accumulation
dose proportionality of exposure (Cmax, AUC0-24h) (up to 600 mg, single or multiple once daily administrations): did not deviate significantly from dose proportionality
